According to patent publication US20240043927A1, “METHOD FOR IDENTIFYING SUBSTANCE CAPABLE OF AFFECTING AGING” (ZHEJIANG BAISHOUKANGDI CO., LTD., priority 2019, published 2024):

How the values were obtained:
Zip11 [1] = experiment: Zip11 mRNA expression in human cells treated with vitamins; assay type: cell-based; conditions: Human HEK293 and HT1080 cells, treated 24 hours; vitamin B3 10, 50, 100 μM; vitamin B12 1, 10, 50 μM; vitamin C 10, 100, 500 μM
Method: Human HEK293 and HT1080 cells were treated for 24 hours respectively at different concentrations of vitamin B3 (10 μM, 50 μM, 100 μM), vitamin B12 (1 μM, 10 μM, 50 μM) and vitamin C (10 μM, 100 μM, 500 μM). The relative expression quantity of Zip11 mRNA was detected.

ZIP11 [2] = experiment: ZIP11 expression in liver of wild-type mice injected with concanavalin A (RT-PCR); assay type: in vivo, mouse; conditions: wild-type C57BL/6 mice, 10 mg/kg through the tail vein, after 18 hours
Method: The wild-type C57BL/6 mice were divided into two groups. An experimental group was injected with 10 mg/kg concanavalin (ConA) through the tail vein.

Compound	relative expression quantity of Zip11 mRNA (Zip11 [1])	expression level of ZIP11 in liver tissue (RT-PCR, β-actin as reference) (ZIP11 [2])
O=C(O)c1cccnc1 [vitamin B3]	increase the expression level of Zip11	
O=C1O[C@H]([C@@H](O)CO)C(O)=C1O [vitamin C]	increase the expression level of Zip11	
Concanavalin A [ConA]		decrease the level of ZIP11
vitamin B12	increase the expression level of Zip11	
